“Also recorded” adds a separate entry of the source.
Assays:
DAF-16 = assay: DAF-16::GFP nuclear translocation in TJ356 nematodes; type: in vivo, Caenorhabditis elegans; settings: 100 μg/mL H7-BJ 2 h with 2 nM 1033, 50 μM TETRA or 5 mM NAC
Protocol: (A) Image of DAF-16::GFP expression in control vehicle-fed and (B) cardiotoxic LC-fed worms (100 μg/mL H7-BJ for 2 h). (C-D) The subcellular distribution of DAF-16 expression in worms fed 2 h: vehicle, 100 μg/mL H7-BJ with or without 2 nM 1033, 50 μM tetracycline (TETRA) or 5 mM N-acetyl-cysteine (NAC). According to DAF-16 localization worms were divided into two phenotypes including “cytosolic” and “nuclear”. The percentage of DAF-16 localization in respect to vehicle fed worms was calculated based on 3 experiments, N=100. Mean±SE. **p<0.01 vs. vehicle, ºp<0.05 and ººp<0.01 vs. cardiotoxic LC, one-way ANOVA and Bonferroni's post hoc test. (E/F) Transgenic worms were fed with 1 mM H2O2 for 30 minutes as a positive control. DAF-16::GFP distribution (E) and HSP-16.2 and SOD-3 expression visualized by GFP-fluorescence (F).
(§1) DAF-16::green fluorescent protein (GFP) nuclear translocation was evaluated in TJ356 nematodes. Pharyngeal expression of HSP-16.2::GFP and SOD-3::GFP was determined in CL2070 and CF1553 worms, respectively. […] Organisms were scored as positive for nuclear localization when green foci were observed throughout the entire body from head to tail and as cytosolic when DAF-16::GFP was diffuse. The number of worms with each level of translocation were counted (at least 100 worms/condition). […] Average pixel intensity values were calculated by sampling images of different animals. […]

C. elegans [1] = assay: C. elegans pharyngeal pumping rate (LC-induced pharyngeal dysfunction); settings: for ROS generation and pumping dysfunction caused by cardiotoxic LC: 2 nM 1033, 50 μM TETRA or 5 mM NAC with 100 μg/mL LC
Protocol: Worms were fed for 2 h with 100 μg/mL H7-BJ in the absence or presence of 0-25 nM 1033. Control worms received vehicle alone (dotted line). Each value is the mean±SE, n=30. […] (B) Images obtained from the overlay of a contrast phase and MitoSOX fluorescence (arrows). Scale bar 50 μm. (C) The effects of cardiotoxic LC, 1033, cardotoxic LC+1033, H2O2 and H2O2+1033 on pharyngeal function. (D) The effects of Chelex® and EDTA on LC induced pharyngeal dysfunction.
MM2-BJ (Myeloma) and H7-BJ (Cardiotoxic LC) and in 5 mM PBS, pH 7.4, were administered to worms (100 worms/100 μL) at 100 μg/mL alone or with 50 μM TETRA or 5 mM NAC. Control worms received vehicle alone (Vehicle). After incubation for 2 h in the absence of OP50 E. coli, worms were plated on NGM plates seeded with bacteria.
Bristol N2 strain, transgenic CL2070 dvIs70 Is[hsp-16.2::gfp; rol-6(su1006)], CF1553 muls84 [(pAD76) sod-3p::GFP+rol-6] and TJ356, zls356Is[daf-16::daf-16-gfp; rol-6] were obtained from the Caenorhabditis elegans Genetic Center (CGC, University of Minnesota, USA) and propagated at 20° C. on solid Nematode Growth Medium (NGM) seeded with E. coli OP50 (from CGC) for food. The effect of LC on pharyngeal behaviour was investigated (Diomede et al. 2014). Briefly, ancestral N2 and transgenic CL2070, TJ356 and CF1553 worms were incubated with 100 μg/mL LC listed in Table 1A (100 worms/100 μL) in 5 mM PBS, pH 7.4. Control worms were incubated with 5 mM PBS, pH 7.4 (Vehicle) only. After 2 h of incubation on orbital shaking, worms were transferred onto NGM plates seeded with OP50 E. coli. The pharyngeal pumping rate, measured by counting the number of times the terminal bulb of the pharynx contracted over a 1-minute interval, was scored 20 h later. Experiments were also performed by feeding worms for 2 h with 100 μg/mL of H6-BJ, H7-BJ, H18-BJ, MM2-BJ, MM4-BJ or MM7-BJ alone or with 125 μM copper (as CuSO4).
The experimental conditions of Example 4 were repeated with cardiotoxic LC H7-BJ with or without 1033, Chelex® resin or EDTA as well as 1033, H2O2 and H2O2 together with 1033.

H7-BJ cardiotoxic LC = assay: Amplex Red H2O2 assay; type: biochemical, human; settings: 100 μg/mL H7-BJ incubated with 2 nM 1033, room temperature
Protocol: H7-BJ and MM2-BJ proteins (100 μg/mL) in 10 mM sodium phosphate buffer (PB), pH 7.4, were incubated at room temperature in the presence or absence of 50 μM Chelex® resin or 2 nM 5,7-dichloro-8-hydroxy-2-(dimethylaminomethyl)quinoline (1033). Different times after incubation (0-2 h), 2 μL of solutions were put into a 96-well black plate, diluted 1:100 (vol/vol) with 10 mM PBS, pH 7.4, and the amount of H2O2 generated was determined by using the Amplex Red assay kit (Molecular probes, Life Technologies). To this end, 50 μL working solution of 100 μM Amplex Red and 200 mU/mL horseradish peroxidase in 10 mM PB, pH 7.4, was added to each well. The plate was shaken and incubated at room temperature for 30 min, protected from light. The fluorescence was read on a Tecan Infinite M200 microplate reader (Tecan, Austria) at excitation wavelength of 563 nm and emission wavelength of 587 nm. Averages and standard deviations were converted to H2O2 concentrations.

HSP-16.2 = assay: Pharyngeal expression of HSP-16.2::GFP in CL2070 worms; type: in vivo, Caenorhabditis elegans; settings: 100 μg/mL H7-BJ + 2 nM 1033, CL2070 worms
Protocol: (§2) Transgenic worms were fed for 2 h with: Vehicle (i, 5 mM PBS, pH 7.4) 100 μg/mL MM2-BJ (ii, Myeloma), 100 μg/mL H7-BJ (iii, Cardiotoxic LC), or 2 nM 1033 (iv, Cardiotoxic LC+ 1033). (A) Images of the HSP-16.2 expression as overlays of GFP-fluorescence and light microscopy in CL2070 transgenic worms. Scale bar 50 μm. (C) Images of SOD-3 expression as GFP-fluorescence (arrows) in CF1553 transgenic worms. Scale bar 50 μm. Quantified GFP intensity in (B) CL2070 and (D) CF1553 worms in response to treatments. Fluorescence intensity in each group was calculated as mean grey value+SE based on 3 experiments, N=25. **p<0.01 vs. Vehicle and ºp<0.05 and ººp<0.01 vs. Cardiotoxic LC, one-way ANOVA and Bonferroni's post hoc test.
as §1, with “animals. Mean pixel intensity for each experimental group was calculated using Cell-F software (Olympus).” for “animals.”

C. elegans N2 worms = assay: C. elegans life span experiments; type: in vivo, Caenorhabditis elegans
Protocol: N2 worms (100 worms/100 μL), at L3 larval stage, were fed for 2 h 100 μg/mL of H7-BJ alone or with 2 nM 1033. Worms were then transferred onto fresh NGM plates seeded with E. coli in the presence of the same drug concentration. Control worms were exposed, under the same conditions, to vehicle alone. After 20 h nematodes were transferred to fresh NGM plates seeded with bacteria and the number of live worms was scored (considered as day 0). To avoid overlapping generations, the worms were then transferred every day, in the absence of fluorodeoxyuridine, until they stopped laying eggs. To test the effect of repeated administration of 1033, worms were fed for 2 h 100 μg/mL of H7-BJ and 2 nM 1033 and then transferred onto fresh NGM plates seeded with E. coli in the presence of the same drug concentration. Then nematodes were transferred every day, in a new NGM plate in the presence of freshly dissolved 2 nM 1033. The number of live worms was determined for each consecutive day until all worms were dead.

SOD-3 = assay: Pharyngeal expression of SOD-3::GFP in CF1553 worms; type: in vivo, Caenorhabditis elegans; settings: 100 μg/mL H7-BJ + 2 nM 1033, CF1553 worms
Protocol: as §2
as §1, with “animals. Mean pixel intensity for each experimental group was calculated using Cell-F software (Olympus).” for “animals.”

C. elegans [2] = assay: Pharyngeal function, drugs administered after damage by cardiotoxic LC; type: in vivo, Caenorhabditis elegans; settings: H7-BJ 1.5 h
Protocol: Pharyngeal performance of worms fed 100 μg/mL H7-BJ (Cardiotoxic LC) for 1.5 h and then treated for 30 min with 20 µM tetracycline (TETRA), 0.5-2 nM 1033 alone or together with 20 μM TETRA. Control worms fed vehicle alone. **p<0.001, *p<0.005 vs. vehicle, ººp<0.001 vs. Cardiotoxic LC, one-way ANOVA and Bonferroni's post hoc test. §§ p<0.01 significant interaction vs. worms fed Cardiotoxic LC+ 0.5 nM 1033, two-ways ANOVA and Bonferroni's post hoc test.
To reflect circumstances most likely encountered in the clinic drugs were administered to worms when the pharynx was already damaged by cardiotoxic LC. […] Then drugs were administered for 30 min and the pumping rate was scored.
Feeding experiments in which nematodes were fed H7-BJ for 1.5 h to generate pharangeal dysfunction, subsequently 20 μM TETRA, 0.5 nM 1033, 2 nM 1033, 20 μM TETRA and 0.5 nM 1033.

Stability of the drug = type: physicochemical
C. elegans [3] = assay: Endogenous metal levels (Cu, Zn, Fe) in C. elegans; type: in vivo, Caenorhabditis elegans; settings: 100 μg/mL H7-BJ + 2 nM 1033
Protocol: FIG. 3 provides graphical representations of endogenous metal levels and the effects of added copper on C. elegans pharyngeal function. Worms fed with 100 μg/mL MM2-BJ (myeloma), 100 μg/mL cardiotoxic LC H7-BJ, cardiotoxic LC+ 2 nM 1033, or metal free water (vehicle) were analysed for the amount of endogenous Cu (A), Zn and Fe (B).

Structure (SMILES)	activation (nuclear translocation) of DAF-16 induced by the cardiotoxic LC (DAF-16)	ROS generation and pumping dysfunction caused by cardiotoxic LC (C. elegans [1])	effect on the pharyngeal pumping dysfunction caused by cardiotoxic LC (C. elegans [1]; 100 μg/mL H7-BJ with 50 μM TETRA or 5 mM NAC, pumping 20 h after plating)	IC50 (C. elegans [1]; Caenorhabditis elegans, read-out: IC50 value of TETRA (pharyngeal dysfunction)) [µM]	H2O2 (ROS) production by H7-BJ (H7-BJ cardiotoxic LC)	LC-induced HSP-16.2 protein expression in the pharynx (HSP-16.2)	median survival (C. elegans N2 worms; H7-BJ + 2 nM/day 1033 (repeated administration), vehicle 13 days) [days]	protective effect on survival, single dose (C. elegans N2 worms; single dose of 1033 at 2 nM, H7-BJ-fed worms)	pharyngeal impairment caused by all cardiotoxic LC under investigation (C. elegans [1]; 2 nM 1033)	pumping rate, 1033 alone (C. elegans [1]; 1033 alone, no LC)	pharyngeal toxicity induced by exposure to exogenous H2O2 (C. elegans [1]; H2O2 + 1033)	LC-induced SOD-3 protein expression in the pharynx (SOD-3)	maximal recovery of pharangeal function (C. elegans [2]; then 2 nM 1033) [%]	restoring pharangeal function after damage by H7-BJ (C. elegans [2]; then 20 μM TETRA or 0.5 nM 1033 alone)	restoring pharyngeal function after damage by H7-BJ (C. elegans [2]; then drug 30 min, 2 nM 1033 or 20 μM TETRA)	stability under physiological conditions and in a variety of standard solvents (Stability of the drug)	cardiotoxic LC-induced elevation of copper levels in worms (C. elegans [3])
CC(=O)N[C@@H](CS)C(=O)O [NAC, N-acetyl cysteine, reference compound]	not observed	capable of neutralizing	protective effect														
CN(C)[C@@H]1C(O)=C(C(N)=O)C(=O)[C@@]2(O)C(O)=C3C(=O)c4c(O)cccc4[C@@](C)(O)[C@H]3C[C@@H]12 [TETRA, tetracycline, reference compound]				20													
CN(C)Cc1ccc2c(Cl)cc(Cl)c(O)c2n1 [compound 1033, 5,7-dichloro-8-hydroxy-2-(dimethylaminomethyl)quinoline]	counteracted	capable of neutralizing			significantly attenuated; also recorded: did prevent the increase	significantly reduced	13	No protective effect	completely abolished	did not affect	did not counteract	significantly reduced	53	no effect	restoring normal pharyngeal function	extremely stable	counteracted

— US11357770B2, “Method of treating immunoglobulin light chain amyloidosis” (ALTERITY THERAPEUTICS LIMITED, priority 2016, dated 2022)
